Consider one substance from paper PMC4004541, “PEG-Like Nanoprobes: Multimodal, Pharmacokinetically and Optically Tunable Nanomaterials” (PLoS ONE, 2014).

The test system of the test is mCherry/HT29 cells. Description: Confocal microscopy of mCherry/HT29 tumor sections. In kind it is in vivo, nude mice. Particulars: tumor collected 48 h post IV injection. On the procedure:
With skin removed, an overlay of tumor mCherry (green) and PN(545)10.0 (purple) gave a white superimposition. To determine the cells responsible for the accumulation of PN(783)10.0 seen with surface fluorescence ( Figure 5C ), we employed confocal microscopy of mCherry/HT29 tumor sections ( Figure 5D ).
The mCherry-HT-29 tumor sample was collected at 48 h post IV injection with PN(497)10.0, and then cryosectioned with thickness of 5 µm. The tumor section was fixed with 4% PFA, mounted with 90% glycerol/10% PBS (at pH 8.5 for best fluorescein fluorescence), and stained with DAPI. Confocal imaging was performed on a Zeiss LSM510 laser scanning confocal microscope (Zeiss Axiophot, Carl Zeiss, Jena, Germany). A 405 nm diode Laser, 488 nm argon laser, and 561 nm diode laser were used for the excitation of DAPI, fluorescein, and mCherry, respectively. A primary dichroic HFT 405/488/561 was used in combination with an LP420 emission filter for DAPI, BP505-530 for fluorescein, and LP575 for mCherry. Images were analyzed with ImageJ64.
Confocal imaging: The mCherry-HT-29 tumor sample was collected at 48 h post IV injection with PN(497)10.0, and then cryosectioned with thickness of 5 µm. The tumor section was fixed with 4% PFA, mounted with 90% glycerol/10% PBS (at pH 8.5 for best fluorescein fluorescence), and stained with DAPI. […] Images were analyzed with ImageJ64.

Consider “(DOTA)Lys(PEG 30 kDa)-Cys(Fl) [PN(497)10.0, PEG-like Nanoprobe: 30 kDa PEG, fluorescein, DOTA peptide]”, for which the “Cellular localisation in tumor sections” value is given as “seen in mCherry/HT29 cells”.
